Laboratory results: PubChem BioAssay AID651792 (The Scripps Research Institute Molecular Screening Center, 2012)
Calls of active or inactive are those of the source. The rule behind the calls is not given here.

Tested on: FXN GAA850 promoter luciferase reporter, luminescence
Experiment: GAA850 FXN promoter activators, dose response, cell-based, luminescence, GAA850 repeat (AID 651792)

Structure (SMILES)	EC50
COc1ccc(-c2nnc(Nc3nc4c(OC)cccc4s3)o2)c(OC)c1	> 59.6 µM (inactive)
Cc1ccc(NC(=O)c2cnc(SCC(=O)Nc3cccc(C(F)(F)F)c3)n(C)c2=O)cc1C	> 59.6 µM (inactive)
Fc1ccc2nc(Nc3nnc(-c4ccccc4Cl)o3)sc2c1	> 59.6 µM (inactive)
COc1ccc(-c2nnc(Nc3nc4ccc(OC)cc4s3)o2)c(OC)c1	> 59.6 µM (inactive)
Cn1c(SCC(=O)NCC2CCCO2)ncc(C(=O)Nc2ccc(F)cc2)c1=O (configuration not stated)	> 59.6 µM (inactive)
Fc1cccc2sc(Nc3nnc(-c4ccccc4Cl)o3)nc12	> 59.6 µM (inactive)
COc1ccccc1NC(=O)c1cnc(SCC(=O)NCc2ccc3c(c2)OCO3)n(C)c1=O	> 59.6 µM (inactive)
COc1ccc(-c2nnc(Nc3nc4ccc(SC)cc4s3)o2)c(OC)c1	> 59.6 µM (inactive)
CSc1ccc2nc(Nc3nnc(-c4ccc5c(c4)OCCO5)o3)sc2c1	> 59.6 µM (inactive)
Clc1ccc(-c2nnc(Nc3nc4cc5c(cc4s3)OCO5)o2)cc1	> 59.6 µM (inactive)
COc1cccc2sc(Nc3nnc(-c4ccc(F)cc4)o3)nc12	> 59.6 µM (inactive)
COc1ccc(-c2nnc(Nc3nc4cc(OC)ccc4s3)o2)c(OC)c1	> 59.6 µM (inactive)
COc1ccc(-c2nnc(Nc3nc4c(OC)cccc4s3)o2)cc1	> 59.6 µM (inactive)
COc1ccccc1CNC(=O)CSc1ncc(C(=O)Nc2ccccc2)c(=O)n1C	> 59.6 µM (inactive)
COc1ccc(-c2nnc(Nc3nc4ccc(F)cc4s3)o2)c(OC)c1	> 59.6 µM (inactive)
COc1ccccc1NC(=O)c1cnc(SCC(=O)Nc2ccc3c(c2)OCO3)n(C)c1=O	> 59.6 µM (inactive)

Structure (SMILES)	EC50
COc1ccc(-c2nnc(Nc3nc4c(F)cccc4s3)o2)c(OC)c1	> 59.6 µM (inactive)
COc1ccccc1NC(=O)c1cnc(SCC(=O)NCC2CCCO2)n(C)c1=O (configuration not stated)	> 59.6 µM (inactive)
COc1ccccc1NC(=O)c1cnc(SCC(=O)NCCc2ccccc2)n(C)c1=O	> 59.6 µM (inactive)
COc1cccc2sc(Nc3nnc(-c4ccccc4)o3)nc12	> 59.6 µM (inactive)
Clc1ccccc1-c1nnc(Nc2nc3cc4c(cc3s2)OCO4)o1	> 59.6 µM (inactive)
Fc1ccc(-c2nnc(Nc3nc4c(F)cccc4s3)o2)cc1	> 59.6 µM (inactive)
Cn1c(SCC(=O)NCC2CCCO2)ncc(C(=O)Nc2ccc(Cl)cc2)c1=O (configuration not stated)	> 59.6 µM (inactive)
COc1ccccc1NC(=O)c1cnc(SCC(=O)Nc2cc(C)on2)n(C)c1=O	> 59.6 µM (inactive)
Cn1c(SCC(=O)NCC2CCCO2)ncc(C(=O)Nc2ccccc2)c1=O (configuration not stated)	> 59.6 µM (inactive)
CCc1nnc(NC(=O)CSc2ncc(C(=O)Nc3ccc(C)c(C)c3)c(=O)n2C)s1	> 59.6 µM (inactive)
COc1ccccc1NC(=O)c1cnc(SCC(=O)NCc2ccccc2)n(C)c1=O	> 59.6 µM (inactive)
CSc1ccc2nc(Nc3nnc(-c4ccccc4Cl)o3)sc2c1	> 59.6 µM (inactive)
COc1ccccc1-c1nnc(Nc2nc3ccc(F)cc3s2)o1	> 59.6 µM (inactive)
COc1ccccc1-c1nnc(Nc2nc3c(OC)cccc3s2)o1	> 59.6 µM (inactive)
COc1cccc2sc(Nc3nnc(-c4ccccc4Cl)o3)nc12	> 59.6 µM (inactive)
COc1ccccc1NC(=O)c1cnc(SCC(=O)Nc2nc3ccccc3s2)n(C)c1=O	> 59.6 µM (inactive)
